Measurements reported in ChEMBL document CHEMBL5352391, “New structural classes of antimalarials” (Eur J Med Chem, 2022).

Columns and labels:
Plasmodium berghei [1] = assay: Antimalarial activity against Plasmodium berghei ANKA infected in mouse assessed as reduction in parasitemia by measuring effective dose at administrated orally for 4 days by flow cytometry analysis; format: functional; details: 96 h, route po, time 4 day
Plasmodium falciparum [2] = assay: Antiplasmodial activity against chloroquine resistant Plasmodium falciparum RKL9 infected in human erythrocyte assessed as inhibition of parasite growth incubated for 24 hrs by two fold serial dilution assay; format: functional, organism-based
Plasmodium berghei [3] = assay: Antimalarial activity against Plasmodium berghei ANKA infected in Swiss albino mouse assessed as reduction in parasitemia at 50 micromol/kg,po administrated for 4 days by Giemsa staining based microscopic analysis; format: functional; design: scale not given: the % may be the effect or the level left; details: dose 50 µmol/kg, time 4 day
Plasmodium falciparum [4] = assay: Antiplasmodial activity against chloroquine resistant Plasmodium falciparum W2 assessed as inhibition of parasite growth incubated for 48 hrs by SYBR green I dye based fluorescence assay; format: functional, organism-based; details: W2, 48 h
[5] = Selectivity index, ratio of CC50 for cytotoxicity against human HepG2 cells by MTT assay to IC50 for antiplasmodial activity against chloroquine resistant Plasmodium falciparum W2 by SYBR green I dye based fluorescence assay; format: toxicity, cell-based; details: read-out: Ratio CC50/IC50
Plasmodium falciparum [6] = assay: Antiplasmodial activity against chloroquine sensitive Plasmodium falciparum 3D7 assessed as inhibition of parasite growth incubated for 48 hrs by SYBR green I dye based fluorescence assay; format: functional, organism-based; details: 3D7, 48 h
Plasmodium falciparum [7] = assay: Antiplasmodial activity against chloroquine resistant Plasmodium falciparum Dd2 assessed as inhibition of parasite growth incubated for 72 hrs by LDH assay based spectrofluorometric analysis; format: functional, organism-based; details: Dd2, 72 h
Plasmodium falciparum [8] = assay: Antiplasmodial activity against Plasmodium falciparum 3D7 assessed as inhibition of parasite growth incubated for 72 hrs by LDH assay based spectrofluorometric analysis; format: functional, organism-based; details: 3D7, 72 h
Plasmodium falciparum [9] = assay: Antiplasmodial activity against Plasmodium falciparum TM90-C2A assessed as inhibition of parasite growth incubated for 72 hrs by SYBR Green I dye based fluorescence assay; format: functional, organism-based
Plasmodium falciparum [10] = assay: Antiplasmodial activity against Plasmodium falciparum TM90-C2B assessed as inhibition of parasite growth incubated for 72 hrs by SYBR Green I dye based fluorescence assay; format: functional, organism-based
Plasmodium falciparum [11] = assay: Antiplasmodial activity against Plasmodium falciparum W2 assessed as inhibition of parasite growth incubated for 72 hrs by SYBR Green I dye based fluorescence assay; format: functional, organism-based; details: W2, 72 h
Plasmodium falciparum [12] = assay: Antiplasmodial activity against Plasmodium falciparum TM91-C23 assessed as inhibition of parasite growth incubated for 72 hrs by SYBR Green I dye based fluorescence assay; format: functional, organism-based; details: TM91-C23, 72 h
Plasmodium vinckei [13] = assay: Antimalarial activity against Plasmodium vinckei infected in Swiss OF1 mouse assessed as reduction in parasite growth by measuring its effective dose administrated orally for four consecutive days and measured on day 5 by Giemsa staining based microscopic analysis; format: functional; details: 120 h, route po, time 5 day
Plasmodium vinckei [14] = assay: Antimalarial activity against Plasmodium vinckei infected in Swiss OF1 mouse assessed as reduction of parasitaemia at 10 mg/kg,po administrated for four consecutive days and measured on day 5 by Giemsa staining based microscopic analysis; format: functional; design: scale not given: the % may be the effect or the level left; details: time 5 day
Plasmodium falciparum [15] = assay: Antiplasmodial activity against chloroquine resistant Plasmodium falciparum K1 infected in human RBC assessed as inhibition of parasite growth incubated for 48 hrs by optical microscopy analysis; format: functional, organism-based; details: K1, Erythrocyte
[16] = Selectivity index, ratio of CC50 for cytotoxicity against human HepG2 cells by MTT assay to IC50 for antiplasmodial activity against chloroquine sensitive Plasmodium falciparum 3D7 by SYBR green I dye based fluorescence assay; format: toxicity, cell-based; details: read-out: Ratio CC50/IC50
Plasmodium falciparum [17] = assay: Antimalarial activity against Plasmodium falciparum FCBR assessed as inhibition of parasite growth by SYTOX Green dye based high-throughput assay; format: functional, organism-based
Falcipain 2 = biological target: T1, Falcipain 2 (Plasmodium falciparum, UniProt Q9N6S8); assay: Inhibition of Plasmodium falciparum recombinant His-tagged falcipain-2 expressed in Escherichia coli assessed as inhibition constant using Cbz-Phe-Arg-AMC as substrate by fluorescence spectrophotometer assay
T1 sequence (Q9N6S8 whole entry): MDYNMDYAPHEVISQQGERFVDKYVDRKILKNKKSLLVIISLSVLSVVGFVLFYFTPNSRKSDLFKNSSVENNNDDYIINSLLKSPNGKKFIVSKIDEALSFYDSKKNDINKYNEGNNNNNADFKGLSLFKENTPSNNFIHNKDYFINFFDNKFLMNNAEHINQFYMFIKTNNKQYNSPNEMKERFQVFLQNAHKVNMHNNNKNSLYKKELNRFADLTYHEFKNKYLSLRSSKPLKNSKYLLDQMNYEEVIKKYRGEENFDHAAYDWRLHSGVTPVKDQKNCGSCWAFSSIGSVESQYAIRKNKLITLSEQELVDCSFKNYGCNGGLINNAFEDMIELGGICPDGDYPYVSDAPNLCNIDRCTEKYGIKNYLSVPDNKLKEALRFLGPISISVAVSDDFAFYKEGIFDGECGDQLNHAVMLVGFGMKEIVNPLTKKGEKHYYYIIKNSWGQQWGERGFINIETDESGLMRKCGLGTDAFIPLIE

Plasmodium falciparum [18] = assay: Additive antiplasmodial activity against Plasmodium falciparum NF54 gametocytes infected in human erythrocyte assessed as inhibition of parasite growth by measuring minimum inhibitory concentration incubated for 48 hrs in presence of chloroquine by SYBR Green dye based fluorescence assay; format: functional
Plasmodium falciparum [19] = assay: Additive antiplasmodial activity against Plasmodium falciparum NF54 gametocytes infected in human erythrocyte assessed as inhibition of parasite growth by measuring minimum inhibitory concentration incubated for 48 hrs in presence of lumefantrine by SYBR Green dye based fluorescence assay; format: functional
Plasmodium falciparum [20] = assay: Additive antiplasmodial activity against Plasmodium falciparum NF54 gametocytes infected in human erythrocyte assessed as inhibition of parasite growth by measuring minimum inhibitory concentration incubated for 48 hrs in presence of mefloquine by SYBR Green dye based fluorescence assay; format: functional
Plasmodium falciparum [21] = assay: Antiplasmodial activity against Plasmodium falciparum NF54 gametocytes infected in human erythrocyte assessed as inhibition of parasite growthVincubated for 48 hrs by SYBR Green dye based fluorescence assay; format: functional, organism-based

## CC(=O)N1CCN(c2ccc(CN(C(=O)/C=C/c3ccc(C(F)(F)F)cc3)[C@@H](Cc3ccccc3)C(=O)N3CCN(Cc4ccc(N(C)CCO)cc4)CC3)cc2)CC1
Plasmodium berghei [1]
  ED90: 54.4 mg/kg

## O=C(O)c1cn(-c2ccc(Cl)cc2)nc1-c1ccccc1
Plasmodium falciparum [2]
  IC50: 0.033 µM
Plasmodium berghei [3]
  Activity: 97%

## c1cc(CNCCCN2CCN(CCCNCc3cccc(-c4nc5ccccc5n5cccc45)c3)CC2)cc(-c2nc3ccccc3n3cccc23)c1
Plasmodium falciparum [4]
  IC50: 0.05 µM
[5]
  selectivity ratio: 40.6
Plasmodium falciparum [6]
  IC50: 0.37 µM

## C/C1=C\[C@H](C)[C@@H](O)C[C@@H](O)/C(C)=C/[C@H](C)C[C@@H](C)CC[C@@H]([C@@H](C)C(=O)O)OC(=O)[C@@H](C)C1
Plasmodium falciparum [7]
  IC50: 0.18 µM
Plasmodium falciparum [8]
  IC50: 0.128 µM

## C/C1=C\C(=O)O[C@@H](C(C)(C)C)CCC[C@@H](O)CCC[C@H](O)CCC[C@H](O)CCC[C@@H](O)C[C@H](O)C[C@@H](O)CCC[C@H](O)CCC[C@H](O)C[C@@H](O)CCCCC1
Plasmodium falciparum [9]
  IC50: 0.08 µM
Plasmodium falciparum [10]
  IC50: 0.09 µM
Plasmodium falciparum [11]
  IC50: 0.14 µM
Plasmodium falciparum [12]
  IC50: 0.27 µM

## CO/N=C(/N)c1ccc(-n2cc(-c3cccc(/C(N)=N\OC)c3)nn2)cc1
Plasmodium vinckei [13]
  ED50: 5 mg/kg
Plasmodium vinckei [14]
  Activity: 100%

## c1ccc(CCC2(CCc3ccccc3)OOC(CCc3ccccc3)(CCc3ccccc3)OO2)cc1
Plasmodium falciparum [15]
  IC50: 1.6 µM

## COc1ccc2c(c1)nc(-c1cccc(CNCCCN3CCN(CCCNCc4cccc(-c5nc6ccc(OC)cc6n6cccc56)c4)CC3)c1)c1cccn12
Plasmodium falciparum [4]
  IC50: 0.17 µM
[16]
  selectivity ratio: 39.2
Plasmodium falciparum [6]
  IC50: 0.04 µM

## N=C(NC(=O)OCc1ccccc1)NC(=O)c1ccc(C(=O)NCc2ccc(NC(=O)OCc3ccccc3)cc2)o1
Plasmodium falciparum [17]
  IC50: 1.06 µM
Falcipain 2
  Ki: 1.08 µM

## C[n+]1c2ccccc2cc2[n-]c3ccccc3c21 [CRYPTOLEPINE]
Plasmodium falciparum [18]
  MIC50: 1.46 nM
Plasmodium falciparum [19]
  MIC50: 1.02 nM
Plasmodium falciparum [20]
  MIC50: 4.18 nM
Plasmodium falciparum [21]
  IC50: 0.0196 µM
